pIC50: −log10 of the molar value.
Key:
Assay in all cases: cells
U-266 = assay type: functional, cell-based, Homo sapiens
Description: SANGER: Inhibition of human U-266 cell growth in a cell viability assay.

D-502MG = assay type: functional, cell-based, Homo sapiens
Description: SANGER: Inhibition of human D-502MG cell growth in a cell viability assay.

A4-Fuk = assay type: functional, cell-based, Homo sapiens;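 further: growth inhibition of A4-Fuk cells, read out by a cell viability assay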
Description: SANGER: Inhibition of human A4-Fuk cell growth in a cell viability assay.

HT = assay type: functional, cell-based, Homo sapiens
Description: SANGER: Inhibition of human HT cell growth in a cell viability assay.

RXF 393 = assay type: functional, cell-based, Homo sapiens;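 further: growth inhibition of human RXF 393 cells, read out with a cell viability assay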
Description: SANGER: Inhibition of human RXF393 cell growth in a cell viability assay.

LU-134-A = assay type: functional, cell-based, Homo sapiens
Description: SANGER: Inhibition of human LU-134-A cell growth in a cell viability assay.

MC116 = assay type: functional, cell-based, Homo sapiens;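 further: growth inhibition of MC116 cells, read out with a cell viability assay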
Description: SANGER: Inhibition of human MC116 cell growth in a cell viability assay.

LS-1034 = assay type: functional, cell-based, Homo sapiens
Description: SANGER: Inhibition of human LS-1034 cell growth in a cell viability assay.

LB2241-RCC = assay type: functional, cell-based, Homo sapiens;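 further: cell viability assay measuring how strongly the cultured human renal carcinoma line is prevented from growing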
Description: SANGER: Inhibition of human LB2241-RCC cell growth in a cell viability assay.

LB1047-RCC = assay type: functional, cell-based, Homo sapiens;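 further: inhibition of cell growth, determined with a cell viability assay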
Description: SANGER: Inhibition of human LB1047-RCC cell growth in a cell viability assay.

HCE-T = assay type: functional, cell-based, Homo sapiens;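 further: cell viability assay read-out, reporting inhibition of HCE-T cell growth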
Description: SANGER: Inhibition of human HCE-T cell growth in a cell viability assay.

NCI-H1155 = assay type: functional, cell-based, Homo sapiens;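 further: cell growth inhibition measured by a viability assay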
Description: SANGER: Inhibition of human NCI-H1155 cell growth in a cell viability assay.

RH-1 = assay type: functional, cell-based, Homo sapiens;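 further: growth inhibition of human RH-1 cells, read out with a cell viability assay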
Description: SANGER: Inhibition of human RH-1 cell growth in a cell viability assay.

KMOE-2 = assay type: functional, cell-based, Homo sapiens;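 further: growth inhibition of human KMOE-2 cells, read out with a cell viability assay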
Description: SANGER: Inhibition of human KMOE-2 cell growth in a cell viability assay.

SH-4 = assay type: functional, cell-based, Homo sapiens;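 further: growth inhibition of SH-4 cells, read out with a cell viability assay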
Description: SANGER: Inhibition of human SH-4 cell growth in a cell viability assay.

MOLT-4 = assay type: functional, cell-based, Homo sapiens;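 further: growth inhibition of MOLT-4 cells, determined with a cell viability readout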
Description: SANGER: Inhibition of human MOLT-4 cell growth in a cell viability assay.

MLMA = assay type: functional, cell-based, Homo sapiens;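 further: growth inhibition of MLMA cells (human), determined through a cell viability readout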
Description: SANGER: Inhibition of human MLMA cell growth in a cell viability assay.

SNU-C2B = assay type: functional, cell-based, Homo sapiens;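 further: cell viability readout used to measure compound-driven suppression of SNU-C2B cell proliferation, IC50 marking half-maximal growth inhibition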
Description: SANGER: Inhibition of human SNU-C2B cell growth in a cell viability assay.

NCI-H23 = assay type: functional, cell-based, Homo sapiens;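 further: cell viability assay measuring growth inhibition of NCI-H23 cells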
Description: SANGER: Inhibition of human NCI-H23 cell growth in a cell viability assay.

SW 954 = assay type: functional, cell-based, Homo sapiens;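 further: growth inhibition of SW954 human cancer cells, read out as cell viability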
Description: SANGER: Inhibition of human SW954 cell growth in a cell viability assay.

Mo = assay type: functional, cell-based, Homo sapiens
Description: SANGER: Inhibition of human Mo-T cell growth in a cell viability assay.

CAS-1 = assay type: functional, cell-based, Homo sapiens;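 further: growth inhibition of CAS-1 cells, measured with a cell viability assay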
Description: SANGER: Inhibition of human CAS-1 cell growth in a cell viability assay.

BB65-RCC = assay type: functional, cell-based, Homo sapiens;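 further: growth inhibition of the cell line, measured with a cell viability assay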
Description: SANGER: Inhibition of human BB65-RCC cell growth in a cell viability assay.

MEG-01 = assay type: functional, cell-based, Homo sapiens;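 further: growth inhibition of MEG-01 cells, read out by a cell viability assay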
Description: SANGER: Inhibition of human MEG-01 cell growth in a cell viability assay.

HAL-01 = assay type: functional, cell-based, Homo sapiens;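 further: growth inhibition of human HAL-01 cells, read out with a cell viability assay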
Description: SANGER: Inhibition of human HAL-01 cell growth in a cell viability assay.

SF-539 = assay type: functional, cell-based, Homo sapiens;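 further: Read-out is a cell viability assay, with IC50 reflecting inhibition of cell growth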
Description: SANGER: Inhibition of human SF539 cell growth in a cell viability assay.

OS-RC-2 = assay type: functional, cell-based, Homo sapiens;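 further: growth inhibition of human OS-RC-2 cells, measured by a cell viability assay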
Description: SANGER: Inhibition of human OS-RC-2 cell growth in a cell viability assay.

BE-13 = assay type: functional, cell-based, Homo sapiens;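 further: growth inhibition of human BE-13 cells, measured with a cell viability assay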
Description: SANGER: Inhibition of human BE-13 cell growth in a cell viability assay.

OCI-AML2 = assay type: functional, cell-based, Homo sapiens;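 further: growth inhibition of OCI-AML2 cells, read out with a cell viability assay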
Description: SANGER: Inhibition of human OCI-AML2 cell growth in a cell viability assay.

A704 = assay type: functional, cell-based, Homo sapiens;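 further: growth inhibition of human A704 cells, read out with a cell viability assay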
Description: SANGER: Inhibition of human A704 cell growth in a cell viability assay.

SK-NEP-1 = assay type: functional, cell-based, Homo sapiens;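 further: growth inhibition of human SK-NEP-1 cells, read out by a cell viability assay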
Description: SANGER: Inhibition of human SK-NEP-1 cell growth in a cell viability assay.

HuTu80 = assay type: functional, cell-based, Homo sapiens, HUTU-80;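 further: growth inhibition of HuTu80 human cells, determined with a cell viability readout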
Description: SANGER: Inhibition of human HUTU-80 cell growth in a cell viability assay.

LB2518-MEL = assay type: functional, cell-based, Homo sapiens;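 further: growth inhibition of human LB2518-MEL cells, measured with a cell viability assay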
Description: SANGER: Inhibition of human LB2518-MEL cell growth in a cell viability assay.

Ramos-2G6-4C10 = assay type: functional, cell-based, Homo sapiens;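 further: growth inhibition of the cell line, measured by a cell viability read-out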
Description: SANGER: Inhibition of human Ramos-2G6-4C10 cell growth in a cell viability assay.

697 = assay type: functional, cell-based, Homo sapiens
Description: SANGER: Inhibition of human 697 cell growth in a cell viability assay.

EW-3 = assay type: functional, cell-based, Homo sapiens;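 further: cell viability assay read-out, IC50 reflects inhibition of growth of the EW-3 cells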
Description: SANGER: Inhibition of human EW-3 cell growth in a cell viability assay.

DMS-114 = assay type: functional, cell-based, Homo sapiens
NCI-H1770 = assay type: functional, cell-based, Homo sapiens;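 further: growth inhibition of NCI-H1770 cells determined with a viability readout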
Description: SANGER: Inhibition of human NCI-H1770 cell growth in a cell viability assay.

GT3TKB = assay type: functional, cell-based, Homo sapiens;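 further: growth inhibition of the cell line, read out with a cell viability assay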
Description: SANGER: Inhibition of human GT3TKB cell growth in a cell viability assay.

A498 = assay type: functional, cell-based, Homo sapiens;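 further: growth inhibition of human A498 cells, read out with a cell viability assay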
Description: SANGER: Inhibition of human A498 cell growth in a cell viability assay.

TE-1 = assay type: functional, cell-based, Homo sapiens;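 further: growth inhibition of the human TE-1 cell line, read out with a cell viability assay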
Description: SANGER: Inhibition of human TE-1 cell growth in a cell viability assay.

SK-PN-DW = assay type: functional, cell-based, Homo sapiens;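 further: growth inhibition measured with a viability assay on these cells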
Description: SANGER: Inhibition of human SK-PN-DW cell growth in a cell viability assay.

GR-ST = assay type: functional, cell-based, Homo sapiens
Description: SANGER: Inhibition of human GR-ST cell growth in a cell viability assay.

ES3 = assay type: functional, cell-based, Homo sapiens;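 further: growth inhibition of ES3 cells, read out with a cell viability assay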
Description: SANGER: Inhibition of human ES3 cell growth in a cell viability assay.

SK-MEL-1 = assay type: functional, cell-based, Homo sapiens;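 further: growth inhibition of human SK-MEL-1 cells, read out by a cell viability assay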
Description: SANGER: Inhibition of human SK-MEL-1 cell growth in a cell viability assay.

EM-2 = assay type: functional, cell-based, Homo sapiens;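 further: growth inhibition of EM-2 cells, read out with a cell viability assay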
Description: SANGER: Inhibition of human EM-2 cell growth in a cell viability assay.

MV4-11 = assay type: functional, cell-based, Homo sapiens, MV-4-11;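 further: cell viability readout measuring growth inhibition of human MV-4-11 cells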
Description: SANGER: Inhibition of human MV-4-11 cell growth in a cell viability assay.

LXF-289 cell line = assay type: functional, cell-based, Homo sapiens
Description: SANGER: Inhibition of human LXF-289 cell growth in a cell viability assay.

Cc1cn(-c2cc(NC(=O)c3ccc(C)c(Nc4nccc(-c5cccnc5)n4)c3)cc(C(F)(F)F)c2)cn1 [NILOTINIB]
pIC50 (U-266; Homo sapiens, U-266): < 5.70 | pIC50 (D-502MG; Homo sapiens, D-502MG): < 5.70 | pIC50 (A4-Fuk; Homo sapiens, A4-Fuk): < 5.70 | pIC50 (HT; Homo sapiens, HT): < 5.70 | pIC50 (RXF 393; Homo sapiens, RXF 393): < 5.70 | pIC50 (LU-134-A; Homo sapiens, LU-134-A): < 5.70 | pIC50 (MC116; Homo sapiens, MC116): < 5.70 | pIC50 (LS-1034; Homo sapiens, LS-1034): < 5.70 | pIC50 (LB2241-RCC; Homo sapiens, LB2241-RCC): 5.99 | pIC50 (LB1047-RCC; Homo sapiens, LB1047-RCC): < 5.70 | pIC50 (HCE-T; Homo sapiens, HCE-T): < 5.70 | pIC50 (NCI-H1155; Homo sapiens, NCI-H1155): < 5.70 | pIC50 (RH-1; Homo sapiens, RH-1): < 5.70 | pIC50 (KMOE-2; Homo sapiens, KMOE-2): < 5.70 | pIC50 (SH-4; Homo sapiens, SH-4): < 5.70 | pIC50 (MOLT-4; Homo sapiens, MOLT-4): < 5.70 | pIC50 (MLMA; Homo sapiens, MLMA): < 5.70 | pIC50 (SNU-C2B; Homo sapiens, SNU-C2B): < 5.70 | pIC50 (NCI-H23; Homo sapiens, NCI-H23): < 5.70 | pIC50 (SW 954; Homo sapiens, SW 954): < 5.70 | pIC50 (Mo; Homo sapiens, Mo): < 5.70 | pIC50 (CAS-1; Homo sapiens, CAS-1): < 5.70 | pIC50 (BB65-RCC; Homo sapiens, BB65-RCC): < 5.70 | pIC50 (MEG-01; Homo sapiens, MEG-01): 8.08 | pIC50 (HAL-01; Homo sapiens, HAL-01): < 5.70 | pIC50 (SF-539; Homo sapiens, SF-539): < 5.70 | pIC50 (OS-RC-2; Homo sapiens, OS-RC-2): < 5.70 | pIC50 (BE-13; Homo sapiens, BE-13): 5.89 | pIC50 (OCI-AML2; Homo sapiens, OCI-AML2): < 5.70 | pIC50 (A704; Homo sapiens, A704): < 5.70 | pIC50 (SK-NEP-1; Homo sapiens, SK-NEP-1): < 5.70 | pIC50 (HuTu80; Homo sapiens, HuTu80): < 5.70 | pIC50 (LB2518-MEL; Homo sapiens, LB2518-MEL): < 5.70 | pIC50 (Ramos-2G6-4C10; Homo sapiens, Ramos-2G6-4C10): < 5.70 | pIC50 (697; Homo sapiens): < 5.70 | pIC50 (EW-3; Homo sapiens, EW-3): < 5.70 | pIC50 (DMS-114; Homo sapiens, DMS-114): < 5.70 | pIC50 (NCI-H1770; Homo sapiens, NCI-H1770): < 5.70 | pIC50 (GT3TKB; Homo sapiens, GT3TKB): < 5.70 | pIC50 (A498; Homo sapiens, A498): < 5.70 | pIC50 (TE-1; Homo sapiens, TE-1): < 5.70 | pIC50 (SK-PN-DW; Homo sapiens, SK-PN-DW): < 5.70 | pIC50 (GR-ST; Homo sapiens, GR-ST): < 5.70 | pIC50 (ES3; Homo sapiens, ES3): < 5.70 | pIC50 (SK-MEL-1; Homo sapiens, SK-MEL-1): < 5.70 | pIC50 (EM-2; Homo sapiens, EM-2): 8.39 | pIC50 (MV4-11; Homo sapiens, MV4-11): < 5.70 | pIC50 (LXF-289 cell line; Homo sapiens, LXF-289): < 5.70

CO[C@H]1C[C@@H]2CC[C@@H](C)[C@@](O)(O2)C(=O)C(=O)N2CCCC[C@H]2C(=O)O[C@H]([C@H](C)C[C@@H]2CC[C@@H](OC(=O)C(C)(CO)CO)[C@H](OC)C2)CC(=O)[C@H](C)/C=C(\C)[C@@H](O)[C@@H](OC)C(=O)[C@H](C)C[C@H](C)/C=C/C=C/C=C/1C [TEMSIROLIMUS]
pIC50 (U-266; Homo sapiens, U-266): 6.82 | pIC50 (D-502MG; Homo sapiens, D-502MG): < 6.70 | pIC50 (A4-Fuk; Homo sapiens, A4-Fuk): 7.09 | pIC50 (HT; Homo sapiens, HT): 7.56 | pIC50 (RXF 393; Homo sapiens, RXF 393): 7.81 | pIC50 (LU-134-A; Homo sapiens, LU-134-A): 7.54 | pIC50 (MC116; Homo sapiens, MC116): 7.59 | pIC50 (LS-1034; Homo sapiens, LS-1034): < 6.70 | pIC50 (LB2241-RCC; Homo sapiens, LB2241-RCC): 7.41 | pIC50 (LB1047-RCC; Homo sapiens, LB1047-RCC): 7.20 | pIC50 (HCE-T; Homo sapiens, HCE-T): 7.31 | pIC50 (NCI-H1155; Homo sapiens, NCI-H1155): 7.20 | pIC50 (RH-1; Homo sapiens, RH-1): < 6.70 | pIC50 (KMOE-2; Homo sapiens, KMOE-2): < 6.70 | pIC50 (SH-4; Homo sapiens, SH-4): < 6.70 | pIC50 (MOLT-4; Homo sapiens, MOLT-4): 8.37 | pIC50 (MLMA; Homo sapiens, MLMA): 8.48 | pIC50 (SNU-C2B; Homo sapiens, SNU-C2B): < 6.70 | pIC50 (NCI-H23; Homo sapiens, NCI-H23): < 6.70 | pIC50 (SW 954; Homo sapiens, SW 954): < 6.70 | pIC50 (Mo; Homo sapiens, Mo): < 6.70 | pIC50 (CAS-1; Homo sapiens, CAS-1): < 6.70 | pIC50 (BB65-RCC; Homo sapiens, BB65-RCC): 8.15 | pIC50 (MEG-01; Homo sapiens, MEG-01): 7.05 | pIC50 (HAL-01; Homo sapiens, HAL-01): < 6.70 | pIC50 (SF-539; Homo sapiens, SF-539): 6.92 | pIC50 (OS-RC-2; Homo sapiens, OS-RC-2): 7.77 | pIC50 (BE-13; Homo sapiens, BE-13): 8.31 | pIC50 (OCI-AML2; Homo sapiens, OCI-AML2): < 6.70 | pIC50 (A704; Homo sapiens, A704): < 6.70 | pIC50 (SK-NEP-1; Homo sapiens, SK-NEP-1): 8.83 | pIC50 (HuTu80; Homo sapiens, HuTu80): < 6.70 | pIC50 (LB2518-MEL; Homo sapiens, LB2518-MEL): < 6.70 | pIC50 (Ramos-2G6-4C10; Homo sapiens, Ramos-2G6-4C10): 9.47 | pIC50 (697; Homo sapiens): 8.77 | pIC50 (EW-3; Homo sapiens, EW-3): 7.31 | pIC50 (DMS-114; Homo sapiens, DMS-114): 6.92 | pIC50 (NCI-H1770; Homo sapiens, NCI-H1770): < 6.70 | pIC50 (GT3TKB; Homo sapiens, GT3TKB): 7.04 | pIC50 (A498; Homo sapiens, A498): < 6.70 | pIC50 (TE-1; Homo sapiens, TE-1): < 6.70 | pIC50 (SK-PN-DW; Homo sapiens, SK-PN-DW): < 6.70 | pIC50 (GR-ST; Homo sapiens, GR-ST): 7.48 | pIC50 (ES3; Homo sapiens, ES3): 7.07 | pIC50 (SK-MEL-1; Homo sapiens, SK-MEL-1): < 6.70 | pIC50 (EM-2; Homo sapiens, EM-2): 7.27 | pIC50 (MV4-11; Homo sapiens, MV4-11): 7.72 | pIC50 (LXF-289 cell line; Homo sapiens, LXF-289): 6.83

CISPLATIN
pIC50 (U-266; u-266): 3.81 | pIC50 (D-502MG; d-502mg): 4.48 | pIC50 (A4-Fuk; a4-fuk): 4.32 | pIC50 (HT; ht): 3.60 | pIC50 (RXF 393; rxf 393): 5.10 | pIC50 (LU-134-A; lu-134-a): 5.40 | pIC50 (MC116; mc116): 4.06 | pIC50 (LS-1034; ls-1034): 4.64 | pIC50 (LB2241-RCC; lb2241-rcc): 4.95 | pIC50 (LB1047-RCC; lb1047-rcc): 5.23 | pIC50 (HCE-T; hce-t): 5.10 | pIC50 (NCI-H1155; nci-h1155): 4.64 | pIC50 (RH-1; rh-1): 3.48 | pIC50 (KMOE-2; kmoe-2): 4.60 | pIC50 (SH-4; sh-4): 4.16 | pIC50 (MOLT-4; molt-4): 4.05 | pIC50 (MLMA; mlma): 4.72 | pIC50 (SNU-C2B; snu-c2b): 4.42 | pIC50 (NCI-H23; nci-h23): 4.40 | pIC50 (SW 954; sw 954): 4.95 | pIC50 (Mo; mo): 3.05 | pIC50 (CAS-1; cas-1): 3.93 | pIC50 (BB65-RCC; bb65-rcc): 5.55 | pIC50 (MEG-01; meg-01): 4.66 | pIC50 (HAL-01; hal-01): 3.96 | pIC50 (SF-539; sf-539): 5.45 | pIC50 (OS-RC-2; os-rc-2): 5.41 | pIC50 (BE-13; be-13): 4.29 | pIC50 (OCI-AML2; oci-aml2): 4.81 | pIC50 (A704; a704): 3.94 | pIC50 (SK-NEP-1; sk-nep-1): 5.14 | pIC50 (HuTu80; hutu-80): 3.33 | pIC50 (LB2518-MEL; lb2518-mel): 3.94 | pIC50 (Ramos-2G6-4C10; ramos-2g6-4c10): 4.58 | pIC50 697: 5.72 | pIC50 (EW-3; ew-3): 5.80 | pIC50 (DMS-114; dms-114): 4.71 | pIC50 (NCI-H1770; nci-h1770): 3.38 | pIC50 (GT3TKB; gt3tkb): 5.41 | pIC50 (A498; a498): 4.71 | pIC50 (TE-1; te-1): 4.41 | pIC50 (SK-PN-DW; sk-pn-dw): 4.46 | pIC50 (GR-ST; gr-st): 5.12 | pIC50 (ES3; es3): 6.06 | pIC50 (SK-MEL-1; sk-mel-1): 4.83 | pIC50 (EM-2; em-2): 4.15 | pIC50 (MV4-11; mv-4-11): 5.46 | pIC50 (LXF-289 cell line; lxf-289): 4.28
